The subject of assay [1] is RS4-11. Briefly: Antiproliferative activity against human RS4-11 cells assessed as cell growth inhibition incubated for 48 hrs by CCK-8 assay. It is filed as functional, cell-based. The conditions noted are these: RS4-11, 48 h. Background: Formazan colour is commonly taken as a measure of viable cells.
Assay [2] has as its target Histone deacetylase 4 (Homo sapiens, UniProt P56524). The assay can be described thus: Inhibition of HDAC4 in human HeLa cells nuclear extract using BocLys(acetyl)-AMC as substrate incubated for 1 hr by fluorescence plate reader analysis. It is filed as subcellular, Nucleus.
Assay [3] concerns HeLa. Briefly: Antiproliferative activity against human HeLa cells assessed as cell growth inhibition at 5 uM incubated for 48 hrs by CCK-8 assay. It is filed as functional, cell-based.
Assay [4] concerns the target Histone deacetylase 1 (Homo sapiens, UniProt Q13547). Briefly: Induction of HDAC1 degradation in human RS4-11 cells at 0.5 to 10 uM incubated for 12 hrs by Western blotting analysis. It is filed as cell-based. The conditions noted are these: dose 0.5-10 µM. Background: In western blotting, separated proteins are transferred to a membrane and probed.
Assay [5] addresses T1, Histone deacetylase 11 (Homo sapiens, UniProt Q96DB2).
T1 sequence (Q96DB2 whole entry): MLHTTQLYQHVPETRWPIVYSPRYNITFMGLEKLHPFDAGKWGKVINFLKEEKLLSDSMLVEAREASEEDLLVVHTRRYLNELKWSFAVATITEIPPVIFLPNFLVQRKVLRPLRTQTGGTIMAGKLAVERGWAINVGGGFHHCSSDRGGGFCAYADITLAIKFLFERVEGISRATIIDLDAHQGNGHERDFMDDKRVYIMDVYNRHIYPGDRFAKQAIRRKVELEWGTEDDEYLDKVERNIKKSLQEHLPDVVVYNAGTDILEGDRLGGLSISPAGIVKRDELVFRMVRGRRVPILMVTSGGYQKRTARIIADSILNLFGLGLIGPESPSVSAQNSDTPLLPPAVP
Briefly: Inhibition of HDAC11 in human HeLa cells nuclear extract using BocLys(acetyl)-AMC as substrate incubated for 1 hr by fluorescence plate reader analysis. It is filed as subcellular, Nucleus.

The subject of assay [6] is A549. The assay can be described thus: Antiproliferative activity against human A549 cells assessed as cell growth inhibition at 5 uM incubated for 48 hrs by CCK-8 assay. The format is functional, cell-based.
Assay [7] deals with U-266. The assay can be described thus: Antiproliferative activity against human U-266 cells assessed as cell growth inhibition incubated for 48 hrs by CCK-8 assay. It is filed as functional, cell-based. The conditions noted are these: U-266, 48 h.
The test system of assay [8] is K562. Briefly: Antiproliferative activity against human K562 cells assessed as cell growth inhibition incubated for 48 hrs by CCK-8 assay. The format is functional, cell-based. The conditions noted are these: K562, 48 h.
Assay [9] deals with T2, Protein deacetylase HDAC6 (Homo sapiens) (UniProt Q9UBN7).
T2 sequence (whole entry): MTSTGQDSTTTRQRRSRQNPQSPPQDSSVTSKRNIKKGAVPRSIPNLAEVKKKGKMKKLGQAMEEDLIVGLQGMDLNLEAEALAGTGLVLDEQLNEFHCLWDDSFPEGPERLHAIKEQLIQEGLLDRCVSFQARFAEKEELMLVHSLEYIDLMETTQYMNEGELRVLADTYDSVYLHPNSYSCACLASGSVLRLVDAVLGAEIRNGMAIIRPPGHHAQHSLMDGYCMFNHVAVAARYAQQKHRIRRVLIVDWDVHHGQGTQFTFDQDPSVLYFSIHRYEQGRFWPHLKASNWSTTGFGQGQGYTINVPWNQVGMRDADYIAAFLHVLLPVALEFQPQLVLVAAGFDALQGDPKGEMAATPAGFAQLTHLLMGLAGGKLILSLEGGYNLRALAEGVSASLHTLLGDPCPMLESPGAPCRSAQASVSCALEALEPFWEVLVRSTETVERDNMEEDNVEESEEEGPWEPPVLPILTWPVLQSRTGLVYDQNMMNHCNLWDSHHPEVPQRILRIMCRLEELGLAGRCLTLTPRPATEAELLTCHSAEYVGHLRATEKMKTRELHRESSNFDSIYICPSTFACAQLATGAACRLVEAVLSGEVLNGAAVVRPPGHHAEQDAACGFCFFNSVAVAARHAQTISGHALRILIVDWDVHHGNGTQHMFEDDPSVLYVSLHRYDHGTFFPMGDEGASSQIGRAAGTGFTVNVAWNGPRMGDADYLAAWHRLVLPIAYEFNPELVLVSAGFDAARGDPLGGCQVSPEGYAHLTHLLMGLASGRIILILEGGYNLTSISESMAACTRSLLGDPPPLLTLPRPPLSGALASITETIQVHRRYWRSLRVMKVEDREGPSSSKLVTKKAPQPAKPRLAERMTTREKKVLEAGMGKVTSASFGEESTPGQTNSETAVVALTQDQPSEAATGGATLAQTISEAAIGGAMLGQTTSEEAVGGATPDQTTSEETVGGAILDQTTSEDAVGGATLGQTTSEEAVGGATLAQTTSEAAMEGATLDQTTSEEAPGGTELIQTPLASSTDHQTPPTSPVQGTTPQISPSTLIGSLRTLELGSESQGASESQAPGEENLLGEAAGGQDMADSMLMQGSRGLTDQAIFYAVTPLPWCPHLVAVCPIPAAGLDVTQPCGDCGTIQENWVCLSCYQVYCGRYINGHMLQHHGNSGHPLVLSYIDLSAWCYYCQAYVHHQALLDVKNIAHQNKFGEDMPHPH
The assay can be described thus: Induction of HDAC6 degradation in human RS4-11 cells at 0.5 to 10 uM incubated for 12 hrs by Western blotting analysis. The conditions noted are these: dose 0.5-10 µM. The format is cell-based.

In assay [10] the target is Histone deacetylase 2 (Homo sapiens, UniProt Q92769). Briefly: Inhibition of HDAC2 in human HeLa cells nuclear extract using BocLys(acetyl)-AMC as substrate incubated for 1 hr by fluorescence plate reader analysis. It is filed as subcellular, Nucleus.
Chain of Histone deacetylase 2 (Q92769 whole entry): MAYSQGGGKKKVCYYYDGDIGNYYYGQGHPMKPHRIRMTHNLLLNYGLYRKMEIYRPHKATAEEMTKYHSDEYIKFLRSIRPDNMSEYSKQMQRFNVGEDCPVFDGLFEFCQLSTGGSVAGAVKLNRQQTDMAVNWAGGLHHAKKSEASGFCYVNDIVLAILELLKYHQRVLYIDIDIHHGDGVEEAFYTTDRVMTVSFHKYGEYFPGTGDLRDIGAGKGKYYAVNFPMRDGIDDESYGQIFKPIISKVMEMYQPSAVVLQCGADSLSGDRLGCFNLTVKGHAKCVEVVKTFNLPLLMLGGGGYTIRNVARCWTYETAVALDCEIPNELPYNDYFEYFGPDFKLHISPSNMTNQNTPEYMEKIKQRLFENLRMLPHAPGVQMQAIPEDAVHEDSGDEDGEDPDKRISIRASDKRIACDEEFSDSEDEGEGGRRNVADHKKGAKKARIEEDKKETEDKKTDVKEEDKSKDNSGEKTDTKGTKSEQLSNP
For assay [11], the system named is RPMI-8226. Briefly: Antiproliferative activity against human RPMI-8226 cells assessed as cell growth inhibition incubated for 48 hrs by CCK-8 assay. The format is functional, cell-based. The conditions noted are these: RPMI-8226, 48 h.
Assay [12] deals with Histone deacetylase 9 (Homo sapiens, UniProt Q9UKV0). The assay can be described thus: Inhibition of HDAC9 in human HeLa cells nuclear extract using BocLys(acetyl)-AMC as substrate incubated for 1 hr by fluorescence plate reader analysis. The format is subcellular, Nucleus.
Chain of Histone deacetylase 9 (Q9UKV0 whole entry): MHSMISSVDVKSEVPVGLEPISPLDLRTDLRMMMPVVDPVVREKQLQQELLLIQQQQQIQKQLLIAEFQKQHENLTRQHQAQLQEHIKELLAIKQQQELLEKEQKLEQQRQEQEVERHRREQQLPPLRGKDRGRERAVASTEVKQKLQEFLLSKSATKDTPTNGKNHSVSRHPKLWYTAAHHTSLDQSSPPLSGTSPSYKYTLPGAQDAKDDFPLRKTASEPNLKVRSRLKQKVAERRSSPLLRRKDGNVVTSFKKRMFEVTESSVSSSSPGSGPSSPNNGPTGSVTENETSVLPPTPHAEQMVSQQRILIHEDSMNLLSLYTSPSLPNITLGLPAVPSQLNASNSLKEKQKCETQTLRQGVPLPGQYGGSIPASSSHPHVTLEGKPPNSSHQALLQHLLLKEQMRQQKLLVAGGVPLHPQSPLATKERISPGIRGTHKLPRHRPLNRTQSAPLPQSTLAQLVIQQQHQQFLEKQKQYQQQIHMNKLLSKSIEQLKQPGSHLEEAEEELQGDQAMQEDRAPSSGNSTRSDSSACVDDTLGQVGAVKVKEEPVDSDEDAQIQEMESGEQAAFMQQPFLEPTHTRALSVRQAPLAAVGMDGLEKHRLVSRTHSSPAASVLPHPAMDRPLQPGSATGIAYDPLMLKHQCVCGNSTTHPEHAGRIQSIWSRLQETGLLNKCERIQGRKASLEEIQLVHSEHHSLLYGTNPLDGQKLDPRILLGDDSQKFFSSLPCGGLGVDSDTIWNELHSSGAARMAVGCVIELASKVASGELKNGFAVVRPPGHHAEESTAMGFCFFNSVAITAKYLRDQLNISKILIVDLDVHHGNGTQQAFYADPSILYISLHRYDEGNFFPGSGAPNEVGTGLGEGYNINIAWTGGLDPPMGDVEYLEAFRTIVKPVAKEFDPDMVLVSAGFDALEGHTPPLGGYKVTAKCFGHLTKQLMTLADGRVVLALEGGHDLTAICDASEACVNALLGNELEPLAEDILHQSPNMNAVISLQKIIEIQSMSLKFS
Assay [13] addresses T3, Histone deacetylase 7 (Homo sapiens, UniProt Q8WUI4).
T3 sequence (Q8WUI4 whole entry): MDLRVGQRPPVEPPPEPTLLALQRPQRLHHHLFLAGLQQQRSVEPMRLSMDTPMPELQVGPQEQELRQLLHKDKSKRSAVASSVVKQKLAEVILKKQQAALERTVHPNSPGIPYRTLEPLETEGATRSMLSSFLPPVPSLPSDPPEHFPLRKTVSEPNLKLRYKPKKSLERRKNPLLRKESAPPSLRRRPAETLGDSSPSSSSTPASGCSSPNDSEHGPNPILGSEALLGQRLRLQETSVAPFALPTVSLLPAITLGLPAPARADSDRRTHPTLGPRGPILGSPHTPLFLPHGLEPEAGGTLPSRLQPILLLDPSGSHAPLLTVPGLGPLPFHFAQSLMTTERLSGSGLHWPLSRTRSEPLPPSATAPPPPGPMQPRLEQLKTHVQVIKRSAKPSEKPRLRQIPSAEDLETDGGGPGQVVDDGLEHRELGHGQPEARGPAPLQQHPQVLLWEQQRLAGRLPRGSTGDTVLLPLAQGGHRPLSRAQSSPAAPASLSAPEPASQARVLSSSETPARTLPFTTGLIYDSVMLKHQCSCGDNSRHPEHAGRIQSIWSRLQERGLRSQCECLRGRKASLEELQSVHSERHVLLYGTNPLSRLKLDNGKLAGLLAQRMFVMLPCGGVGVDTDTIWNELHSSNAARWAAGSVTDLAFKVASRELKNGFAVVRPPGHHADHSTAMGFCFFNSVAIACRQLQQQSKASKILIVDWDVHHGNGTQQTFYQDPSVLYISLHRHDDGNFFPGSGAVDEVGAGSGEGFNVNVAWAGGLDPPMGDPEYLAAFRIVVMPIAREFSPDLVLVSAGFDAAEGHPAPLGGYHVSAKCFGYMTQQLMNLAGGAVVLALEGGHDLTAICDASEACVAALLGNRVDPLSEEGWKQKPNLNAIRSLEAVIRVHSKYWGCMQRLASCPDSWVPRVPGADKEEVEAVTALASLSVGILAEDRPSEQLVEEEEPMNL
The assay can be described thus: Inhibition of HDAC7 in human HeLa cells nuclear extract using BocLys(acetyl)-AMC as substrate incubated for 1 hr by fluorescence plate reader analysis. It is filed as subcellular, Nucleus.

In assay [14] the test system is HCT-116. The assay can be described thus: Antiproliferative activity against human HCT-116 cells assessed as cell growth inhibition at 5 uM incubated for 48 hrs by CCK-8 assay. The format is functional, cell-based.

Activity calls are given as the source filed them. No cut-off for these calls is given here.

Chain of Histone deacetylase 4 (P56524 whole entry): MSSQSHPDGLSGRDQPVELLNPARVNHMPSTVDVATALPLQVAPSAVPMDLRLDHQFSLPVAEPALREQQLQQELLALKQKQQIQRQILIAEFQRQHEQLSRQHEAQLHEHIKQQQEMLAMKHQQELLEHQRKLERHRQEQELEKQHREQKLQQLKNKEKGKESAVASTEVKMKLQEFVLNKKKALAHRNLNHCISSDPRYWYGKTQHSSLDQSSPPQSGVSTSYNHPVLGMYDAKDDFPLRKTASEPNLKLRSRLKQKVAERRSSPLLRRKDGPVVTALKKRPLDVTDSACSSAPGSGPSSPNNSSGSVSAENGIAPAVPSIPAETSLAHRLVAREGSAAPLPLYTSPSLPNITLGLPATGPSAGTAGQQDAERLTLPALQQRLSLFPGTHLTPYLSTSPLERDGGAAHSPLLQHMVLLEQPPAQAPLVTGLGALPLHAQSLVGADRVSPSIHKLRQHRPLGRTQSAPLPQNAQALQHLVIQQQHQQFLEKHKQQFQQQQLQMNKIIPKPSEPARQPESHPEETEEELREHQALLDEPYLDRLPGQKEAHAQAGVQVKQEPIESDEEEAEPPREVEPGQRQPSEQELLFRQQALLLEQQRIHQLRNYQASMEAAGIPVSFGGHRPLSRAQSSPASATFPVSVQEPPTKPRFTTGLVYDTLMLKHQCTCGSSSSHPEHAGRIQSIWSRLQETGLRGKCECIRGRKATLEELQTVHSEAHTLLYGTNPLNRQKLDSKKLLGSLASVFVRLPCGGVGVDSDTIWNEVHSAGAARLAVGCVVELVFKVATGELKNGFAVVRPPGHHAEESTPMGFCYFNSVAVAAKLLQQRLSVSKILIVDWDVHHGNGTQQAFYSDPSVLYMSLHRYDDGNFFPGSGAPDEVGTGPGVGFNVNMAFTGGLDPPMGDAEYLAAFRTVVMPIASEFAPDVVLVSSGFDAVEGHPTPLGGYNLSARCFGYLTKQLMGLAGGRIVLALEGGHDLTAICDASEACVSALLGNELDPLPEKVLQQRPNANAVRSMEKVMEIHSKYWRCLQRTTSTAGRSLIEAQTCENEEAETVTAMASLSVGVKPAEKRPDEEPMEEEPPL
Chain of Histone deacetylase 1 (Q13547 whole entry): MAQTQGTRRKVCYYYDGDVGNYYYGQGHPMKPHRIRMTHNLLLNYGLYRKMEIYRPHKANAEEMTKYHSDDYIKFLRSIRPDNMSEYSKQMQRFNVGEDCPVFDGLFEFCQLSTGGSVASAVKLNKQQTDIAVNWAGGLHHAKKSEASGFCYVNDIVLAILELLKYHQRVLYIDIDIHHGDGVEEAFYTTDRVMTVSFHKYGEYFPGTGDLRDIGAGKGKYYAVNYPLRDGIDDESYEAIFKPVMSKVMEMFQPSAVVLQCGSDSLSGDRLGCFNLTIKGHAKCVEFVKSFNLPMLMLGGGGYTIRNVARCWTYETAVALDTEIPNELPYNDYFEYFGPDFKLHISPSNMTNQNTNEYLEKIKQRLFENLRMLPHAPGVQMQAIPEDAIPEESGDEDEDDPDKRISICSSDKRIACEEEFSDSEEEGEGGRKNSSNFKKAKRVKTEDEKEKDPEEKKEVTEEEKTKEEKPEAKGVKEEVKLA

Broadly, the IC50 is the concentration needed to halve the response being measured. As to `Nc1ccc(F)cc1NC(=O)c1ccc(CNC(=O)/C=C/c2cccnc2)cc1`, the IC50 in [1] is 810 nM; in [2], above 2000 nM; in assay [5], above 2000 nM; in assay [7], 4810 nM; in [8], 21300 nM; in [10] it was 478 nM. In addition, the IC50 is 4190 nM in assay [11], above 2000 nM in assay [12] and above 2000 nM in assay [13]. Moreover, the outcome in [3], in [4], in assay [6], in [9] and in [14] was inactive.

Values taken from ChEMBL document CHEMBL5532657, “Serendipitous discovery of Class I HDAC inhibitors from rational design of molecular glue degraders targeting HDAC” (Eur J Med Chem, 2024).
